{
  "source": "ChEMBL document CHEMBL1129821",
  "about": "“Synthesis and biological evaluation of non-polyene analogs of amphotericin B” (1997)",
  "key": {"Candida albicans": {"test_system": "Candida albicans", "test": "Minimum inhibitory concentration required for antifungal activity against Candida albicans(16820)", "assay_type": "functional"}, "Cryptococcus neoformans": {"test_system": "Cryptococcus neoformans", "test": "Minimum inhibitory concentration required for antifungal activity against Cryptococcus neoformans (271A)", "assay_type": "functional"}},
  "data": [
    {"smiles": "COC(=O)[C@H]1[C@@H]2C[C@@H](O[C@@H]3O[C@H](C)[C@@H](O)[C@H](N)[C@@H]3O)/C=C/C=C/C=C/C=C/C=C/C=C/C=C/[C@H](C)[C@@H](O)[C@@H](C)[C@H](C)OC(=O)C[C@H](O)C[C@H](O)CC[C@@H](O)[C@H](O)C[C@H](O)C[C@](O)(C[C@@H]1O)O2", "note": "[AMPHOTERICIN B ME ESTER]", "values": [
      {"measurement": "MIC", "setting": "Candida albicans", "result": 8000, "unit": "µg/mL"},
      {"measurement": "MIC", "setting": "Cryptococcus neoformans", "result": 8000, "unit": "µg/mL"}
    ]}
  ]
}
